Data: patent publication US5476847A, “Derivatives of phosphinic acid useful as endothelin converting enzyme inhibitors” (priority 1994, dated 1995)

Legend:
[1] = test system: I/H-induced ET-1 release in isolated perfused guinea pig lungs; assay: Isolated Perfused Guinea Pig Lung Method (ischemia/hypoxia, I/H); format: in vivo; conditions: iv, 10 mg/kg
Experimental: The method is as described by Vemulapalli et al., in J. PharmacoL Exp. Therap., 262, 3 (1992), pp. 1062-1069. Briefly, male Dunkin-Hartley guinea pigs (400-600 g) are anesthetized with pentobarbital 30 mg/kg, ip. The trachea is cannulated to facilitate respiration. The right jugular vein is cannulated to administer saline vehicle or test compound, or compounds are administered orally or subcutaneously. Ten minutes after the administration of saline vehicle or test compound, a thoracotomy is performed and the trachea, lungs and heart are removed intact and placed in warmed Tyrode's buffer (34°-35° C.) of the following composition in mM: NaCl 120, KCl 4.8, MgSO4.7H2 O 1.2, KH2 PO4 1.2, NaHCO3 25, CaCl2.2H2 O […], glucose 11 and BSA 0.5%. The pulmonary artery and trachea are cannulated and the lungs are mounted on a perfusion apparatus. Lungs are perfused at a rate of 3.2 ml/min via the pulmonary artery with oxygenated (95% O 2 and 5% CO2) Tyrode's solution maintained at 34°-35° C. The lungs are mechanically ventilated with room air with a volume of 2.5 ml/stroke and 50 strokes/min. Pulmonary insufflation pressure (PIP) is monitored through a side arm of the perfusion apparatus with a Statham pressure transducer and recorded on a Grass polygraph. Lungs are allowed to stabilize for 15 min. Lung effluents (50 ml) are collected every 15 min into chilled polypropylene centrifuge tubes (Corning) containing 100 μl each of aprotinin (200 kallikrein inhibitory units/ml) and soybean trypsin inhibitor (20N-α-benzoyl-L-arginine ethyl ester units/ml). Ischemia-hypoxia (I/H) is produced by cessation of ventilation and perfusion for 15 min followed by reperfusion and reventilation for 60 min. At the end of the experiment, the lungs are tested for cardiopulmonary reactivity by challenging with 5-hydroxy-tryptamine (0.5 mg) directly into the lungs via a pulmonary artery cannula.
In a separate study, anesthetized guinea pigs are administered saline vehicle or test compound. Ten minutes later, the lungs are removed and mounted on a perfusion apparatus as described above. After an equilibration period of 15 min, BET-1 (30 μg over 15 min) or ET-1 (0.6 μg over 15 min) is infused directly into the perfusion medium and the effects on PIP in vehicle and test compound-treated guinea pig lungs are assessed.
FIGS. 3 to 6 show the results of four compounds of the invention on I/H-induced ET-1 release in isolated perfused guinea pig lungs. The compounds include Compounds A and B, identified above, and: […]

ECE = target: T1, ECE (Cavia porcellus, UniProt P97739); assay: In vitro ECE assay (inhibition of [125I]BET-1 to [125I]ET-1 conversion, lubrol-treated guinea pig lung membrane); format: biochemical; conditions: L-GPLGM, 2 h preincubation at 4° C., 500 pM [125I]BET-1, table of examples, read-out: ECE IC50
T1 construct: tissue Keystone Biologicals, Cleveland, Ohio; host or cells: frozen guinea pig lungs; lubrol PX-treated lung membranes
T1 sequence (P97739 1-754): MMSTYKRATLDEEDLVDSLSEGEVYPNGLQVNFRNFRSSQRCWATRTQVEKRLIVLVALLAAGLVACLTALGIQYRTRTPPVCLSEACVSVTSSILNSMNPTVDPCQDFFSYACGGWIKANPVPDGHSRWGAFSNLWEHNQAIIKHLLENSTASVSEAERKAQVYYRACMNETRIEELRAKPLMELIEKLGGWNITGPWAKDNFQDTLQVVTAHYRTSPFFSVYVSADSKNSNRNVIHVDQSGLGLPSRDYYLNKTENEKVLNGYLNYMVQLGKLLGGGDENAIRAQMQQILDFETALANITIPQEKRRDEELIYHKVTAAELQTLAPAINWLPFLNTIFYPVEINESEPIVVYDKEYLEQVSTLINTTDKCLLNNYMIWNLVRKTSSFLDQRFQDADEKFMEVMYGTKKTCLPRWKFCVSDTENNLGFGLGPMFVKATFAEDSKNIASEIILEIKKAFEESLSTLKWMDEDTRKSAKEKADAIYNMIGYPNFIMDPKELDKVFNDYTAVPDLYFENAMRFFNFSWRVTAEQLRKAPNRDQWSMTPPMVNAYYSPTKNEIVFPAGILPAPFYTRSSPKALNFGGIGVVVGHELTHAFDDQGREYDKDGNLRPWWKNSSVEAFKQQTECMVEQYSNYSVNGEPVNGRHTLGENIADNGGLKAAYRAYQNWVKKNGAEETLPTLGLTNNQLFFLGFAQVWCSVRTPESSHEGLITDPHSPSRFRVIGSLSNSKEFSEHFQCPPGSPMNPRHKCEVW
Text: The ECE assay is based on the quantitative determination of [^125 l]ET-1 released from [^125 l]BET-1 labeled on Tyrosine-13 by binding to the membrane-bound ET receptor. […] GPLGM was also found to contain a high density of ET receptors. Thus, this preparation was utilized as a source of both ECE and a saturating concentration of ET receptors for the quantitative determination of [251l]ET-1 from the conversion of [125l ]BET-1. Under selected experimental conditions of the ECE assay, specific [125l]ET-1 bound was directly related to ECE activity. Assays were carried out in the presence of varying concentrations of test compounds to evaluate their efficacy in inhibiting ECE activity.
Frozen guinea pig lungs (Keystone Biologicals,Cleveland, Ohio) are weighed and homogenized in 10 times gram tissue weight of solution A (50 mM Tris-HCl, pH 7.4, 0.25M sucrose, and 2 mM EDTA) using a Polytron tissue homogenizer (probe PTA-20S). Homogenization is repeated four times at speed setting seven each for 10 s and with 5-8 min intervals on ice in between homogenization. Homogenates are spun for 30 min at 2000 g (4100 rpm in an SS34 rotor or 3800 rpm in an SA-600 rotor). Supernatants containing membranes are carefully decanted and saved. Pellets are rehomogenized in solution A as described, and homogenates are spun at 2000 g for 30 min. Supernatants are removed, mixed with the supernatants from the first spin, and spun at 37000 rpm in a 45 Ti rotor (107022 g) for 60 min. Pellets containing membranes are suspended in solution B (10 mM Tris-HCl, pH 7.4, and 0.125M sucrose) using a Dounce homogenizer. Samples are divided into 1 ml fractions, rapidly frozen in a dry ice methanol bath, and stored at -80° C. All steps are carried out at 4° C.
GPLGM fractions prepared as described above are thawed and resuspended at a concentration of 1 mg membrane protein/mL in a solution containing 0.06% lubrol PX, 50 mM Tris-HCl (pH 7.4), and 100 mM NaCl. Stir the mixture for 1 h and then spin for 1 h at 37000 rpm in a 45 Ti rotor (107022 g). Discard the supernatants and resuspend the pellets in a solution containing 50 mM Tris-HCl (pH 7.4), and 100 mM NaCl using a Dounce homogenizer, and adjust the final volume to half the original volume. Spin the homogenates for 1 h at 37000 rpm in a 45 Ti rotor (107022 g). Suspend the membrane pellets in solution B and treat as described above. All steps are performed at 4° C.
ECE Assay: Samples of L-GPLGM containing 20 μg protein are incubated in a solution containing 100 mM Tris-HCl (pH 7), 100 mM NaCl, and 5 mg/ml BSA (Fraction V, 98-99% albumin) (Sigma Chemical Co.) at a final reaction volume of 100 μL. The ECE assay is initiated by the addition of [^125 l]BET-1 to obtain a final concentration of 500 pM. Reactions are carried out for 30 min at 37° C. Reactions are terminated by addition of 4 mL of solution C (10 mM Tris-HCl, pH 7.4, and 150 mM NaCl) at 4° C. followed by rapid filtration on Whatman GF/B glass microfiber filters. Filters are presoaked for 1 h at 4° C. in a solution containing 50 mM Tris-HCl (pH 7.4), 10 mg/mL BSA, and 0.1% sodium azide. Wash test tubes and filters four times with 4 mL of solution C at 4° C., and count radioactivity retained on the filters in a γ counter. Non-specific binding is determined in the presence of 1 μM of unlabeled ET-1 (Peninsula Laboratories, Inc., Belmont, Calif.) in the reaction mixture. All reactions are performed in duplicate.
To test the effect of test compounds on ECE activity, ECE assays are carried out in the presence of varying concentrations of the compounds. Assays are initiated following a 2 h incubation of L-GPLGM with the compound at 4° C. ECE activity in the presence of compounds is expressed as a percentage of control ECE activity of the membrane preparation, which is determined simultaneously.

For CC(C)C(CP(=O)(O)C(Cc1ccccc1)NC(=O)C(CCCCN)NS(C)(=O)=O)C(=O)N[C@@H](Cc1c[nH]c2ccccc12)C(=O)O (stereo partly drawn) [Compound C], the “elevation in PIP produced by I/H (FIG. 5)” value [1] was “attenuated”.

With O=C(N[C@@H](Cc1ccccc1)P(=O)(O)CC1(C(=O)N[C@@H](Cc2c[nH]c3ccccc23)C(=O)O)CCCC1)OCc1ccccc1 [Example 1] the IC50 (ECE) was 190 nM.

For O=C(N[C@@H](Cc1ccccc1)P(=O)(O)CC1(C(=O)N[C@@H](Cc2ccc(O)cc2)C(=O)O)CCCC1)OCc1ccccc1 [Example 2], the IC50 (ECE) was 130 nM.

In the case of COc1ccc(CC(NC(=O)[C@H](CCCCNC(=O)OCc2ccccc2)NS(C)(=O)=O)P(=O)(O)CC2(C(=O)N[C@@H](Cc3c[nH]c4ccccc34)C(=O)O)CCCC2)cc1 (stereo partly drawn) [Example 3A], the IC50 (ECE) is reported as 50 nM.

Work on CS(=O)(=O)N[C@@H](CCCCNC(=O)OCc1ccccc1)C(=O)NC(Cc1ccc(O)cc1)P(=O)(O)CC1(C(=O)N[C@@H](Cc2c[nH]c3ccccc23)C(=O)O)CCCC1 (stereo partly drawn) [Example 3B] yielded an IC50 (ECE) of 55 nM.

In the case of CS(=O)(=O)N[C@@H](CCCCNC(=O)OCc1ccccc1)C(=O)NC(Cc1ccc2ccccc2c1)P(=O)(O)CC1(C(=O)N[C@@H](Cc2c[nH]c3ccccc23)C(=O)O)CCCC1 (stereo partly drawn) [Example 3C], the IC50 (ECE) is reported as 55 nM.

Work on CC(C)CC(NC(=O)[C@H](CCCCNC(=O)OCc1ccccc1)NS(C)(=O)=O)P(=O)(O)CC1(C(=O)N[C@@H](Cc2c[nH]c3ccccc23)C(=O)O)CCCC1 (stereo partly drawn) [Example 3D] yielded an IC50 (ECE) of 55 nM.

CS(=O)(=O)N[C@@H](CCCCNC(=O)OCc1ccccc1)C(=O)N[C@@H](Cc1ccccc1)P(=O)(O)CC1(C(=O)N[C@@H](Cc2ccc(O)cc2)C(=O)O)CCCC1 [Example 4] gave an IC50 (ECE) of 119 nM.

In the case of COc1ccc(CC(NC(=O)[C@H](CCCCN)NS(C)(=O)=O)P(=O)(O)CC2(C(=O)N[C@@H](Cc3c[nH]c4ccccc34)C(=O)O)CCCC2)cc1 (stereo partly drawn) [Example 5A], the IC50 (ECE) is reported as 40 nM.

With CS(=O)(=O)N[C@@H](CCCCN)C(=O)NC(Cc1ccc(O)cc1)P(=O)(O)CC1(C(=O)N[C@@H](Cc2c[nH]c3ccccc23)C(=O)O)CCCC1 (stereo partly drawn) [Example 5B] the IC50 (ECE) was 100 nM.

CS(=O)(=O)N[C@@H](CCCCN)C(=O)N[C@@H](Cc1ccccc1)P(=O)(O)CC1(C(=O)N[C@@H](Cc2ccc(O)cc2)C(=O)O)CCCC1 [Example 5C] was tested, and the IC50 (ECE) was 100 nM.

With O=C(N[C@@H](Cc1ccccc1)P(=O)(O)CC1(C(=O)N[C@@H](Cc2c[nH]c3ccccc23)C(=O)O)CCCC1)c1ccccc1 [Example 6.2B] the IC50 (ECE) was 250 nM.

With NCc1ccc(C(=O)N[C@@H](Cc2ccccc2)P(=O)(O)CC2(C(=O)N[C@@H](Cc3c[nH]c4ccccc34)C(=O)O)CCCC2)cc1 [Example 6] the IC50 (ECE) was 90 nM.

Work on O=C(NC(Cc1ccc(C(=O)N2CCOCC2)cc1)P(=O)(O)CC1(C(=O)N[C@@H](Cc2c[nH]c3ccccc23)C(=O)O)CCCC1)OCc1ccccc1 (stereo partly drawn) [Example 7] yielded an IC50 (ECE) of 50 nM.

NC(=O)c1ccc(CC(NC(=O)OCc2ccccc2)P(=O)(O)CC2(C(=O)N[C@@H](Cc3c[nH]c4ccccc34)C(=O)O)CCCC2)cc1 (stereo partly drawn) [Example 8A] gave an IC50 (ECE) of 290 nM.

For O=C(NC(Cc1ccc(C(=O)O)cc1)P(=O)(O)CC1(C(=O)N[C@@H](Cc2c[nH]c3ccccc23)C(=O)O)CCCC1)OCc1ccccc1 (stereo partly drawn) [Example 8B], the IC50 (ECE) was 490 nM.

With O=C(NC(Cc1ccc(O)cc1)P(=O)(O)CC1(C(=O)N[C@@H](Cc2c[nH]c3ccccc23)C(=O)O)CCCC1)OCc1ccccc1 (stereo partly drawn) [Example 8] the IC50 (ECE) was 85 nM.

In the case of CC(C)CC(CP(=O)(O)C(CC(C)C)NC(=O)[C@H](CCCCNC(=O)OCc1ccccc1)NS(C)(=O)=O)C(=O)N[C@@H](Cc1c[nH]c2ccccc12)C(=O)O (stereo partly drawn) [Example 10B], the IC50 (ECE) is reported as 1400 nM.

CC(C)C(CP(=O)(O)C(Cc1ccccc1)NC(=O)[C@H](CCC(N)=O)NC(=O)OCc1ccccc1)C(=O)N[C@@H](Cc1c[nH]c2ccccc12)C(=O)O (stereo partly drawn) [Example 10C] gave an IC50 (ECE) of 200 nM.

CC(C)CC(CP(=O)(O)C(CCCCO)NC(=O)[C@H](CC(C)C)NS(C)(=O)=O)C(=O)N[C@@H](Cc1c[nH]c2ccccc12)C(=O)O (stereo partly drawn) [Example 10D] was tested, and the IC50 (ECE) was 150 nM.

With CC(C)CC(CP(=O)(O)C(CC1CCCC1)NC(=O)[C@H](CCCCNC(=O)OCc1ccccc1)NS(C)(=O)=O)C(=O)N[C@@H](Cc1c[nH]c2ccccc12)C(=O)O (stereo partly drawn) [Example 10E] the IC50 (ECE) was 55 nM.
